Minimal effective concentration and activity data for three compounds are collected here from article PMC7377239, “Cardiovascular Effects of Polychlorinated Biphenyls and Their Major Metabolites” (Environmental Health Perspectives, 2020).

In test [1] the test system is iCell endothelial cells (human iPSC-derived ECs). The experiment in a line: Tube formation (tubulogenesis) assay in iCell endothelial cells, 18 h. It is filed as cell-based. As to conditions: Homo sapiens, Endothelial cell, 18 hr; for activity at 0.1 µM: 0.10 µM. The method in brief:
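iCell ECs (passages 1–5) seeded 7,500 cells/well on reduced-growth-factor Geltrex in starvation medium, exposed overnight at 37°C to compounds in triplicate concentration–response (0.5% DMSO vehicle). Calcein AM staining, 4× imaging, angiogenesis image analysis; readouts normalized to vehicle, four-parameter logistic fit, POD at 1 SD of vehicle; 100 μM assigned NOAEL if no response.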

In another test the test system is HUVECs. The experiment in a line: Tube formation (tubulogenesis) assay in HUVECs, 18 h. It is filed as cell-based, human. As to conditions: Homo sapiens, HUVEC, 18 h, HUVEC; for activity at 0.1 µM: 0.10 µM. Summed up: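 HUVECs (passage 1–5) seeded on reduced-growth-factor basement membrane and exposed to compounds overnight at 37°C, 5% CO2, in 2× maintenance medium with 12.5 ng/mL VEGF; 0.5% DMSO vehicle. Calcein AM-stained tube networks imaged and analysed; vehicle-normalized readouts fit to four-parameter logistic, POD set at one SD of vehicle means.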

Setting [2] is: endothelial cells (endo), tube formation mtl, read-out: POD endo.mtl.18hr.
The mark [3] stands for this setting: endothelial cells (endo), tube formation tlps, read-out: POD endo.tlps.18hr.
Setting [4] is: endothelial cells (endo), tube formation tta, read-out: POD endo.tta.18hr.
The mark [5] stands for this setting: endothelial cells (endo), tube formation ttl, read-out: POD endo.ttl.18hr.
Where [6] appears, read: tube formation mtl, read-out: POD huvec.mtl.18hr.
The mark [7] stands for this setting: tube formation tlps, read-out: POD huvec.tlps.18hr.
Setting [8] is: tube formation tta, read-out: POD huvec.tta.18hr.
Where [9] appears, read: tube formation ttl, read-out: POD huvec.ttl.18hr.
The mark [10] stands for this setting: iPSC-EC tube formation, 0.00 µM control = 100.00, read-out: endo.mtl.18hr.
The mark [11] stands for this setting: iPSC-EC tube formation, 0.00 µM control = 100.00, read-out: endo.tlps.18hr.
[12] abbreviates: iPSC-EC tube formation, 0.00 µM control = 100.00, read-out: endo.tta.18hr.
The mark [13] stands for this setting: iPSC-EC tube formation, 0.00 µM control = 100.00, read-out: endo.ttl.18hr.
Setting [14] is: HUVECs, 0.00 µM = 100.00, read-out: huvec.mtl.18hr.
Setting [15] is: HUVECs, 0.00 µM = 100.00, read-out: huvec.tlps.18hr.
Where [16] appears, read: HUVECs, 0.00 µM = 100.00, read-out: huvec.tta.18hr.
The mark [17] stands for this setting: HUVECs, 0.00 µM = 100.00, read-out: huvec.ttl.18hr.

SMILES strings stand for the structures. Like-named read-outs stand apart in the source and are kept apart here.

For the compound `Oc1ccc(-c2cccc(Cl)c2)cc1Cl` [4-OH-PCB 11], the minimal effective concentration in test [1] (setting [2]) was determined as 17.7 µM; in test [1] (setting [3]) it was 52.5 µM; in test [1] (setting [4]), 15.8 µM; in test [1] (setting [5]), 16.1 µM; in the test with HUVECs (setting [6]), 7.09 µM; in the test with HUVECs (setting [7]), 35.3 µM. Moreover, the values for the minimal effective concentration in the test with HUVECs (setting [8]) and in the test on HUVECs (setting [9]) were 100 µM and 4.15 µM, respectively.

As for `Oc1cc(Cl)c(-c2cc(Cl)ccc2Cl)cc1Cl` [4-OH-PCB 52], the minimal effective concentration came to 9.52 µM in test [1] (setting [2]); 8.32 µM in test [1] (setting [3]); 15 µM in test [1] (setting [4]); 15.2 µM in test [1] (setting [5]); 8.34 µM in the test on HUVECs (setting [6]); 4.13 µM in the test on HUVECs (setting [7]). Further, the minimal effective concentration worked out at 51.8 µM with HUVECs (setting [8]) and 62.1 µM with HUVECs (setting [9]).

Regarding `COc1ccc(-c2cccc(Cl)c2)cc1Cl` [4-OMe PCB11], the activity at 0.01 µM in test [1] (setting [10]) worked out at 115%; in test [1] (setting [11]), 108%; in test [1] (setting [12]), 168%; in test [1] (setting [13]), 169%; with HUVECs (setting [14]) it was 124%; in the test with HUVECs (setting [15]), 137%. Further, the activity at 0.01 µM came to 110% in the test with HUVECs (setting [16]) and 93.8% in the test on HUVECs (setting [17]). Further, the activity at 0.1 µM in test [1] (setting [10]) amounted to 114%; in test [1] (setting [11]), 108%; in test [1] (setting [12]), 134%; in test [1] (setting [13]) it was 137%; with HUVECs (setting [14]), 107%; in the test with HUVECs (setting [15]), 117%. In addition, the activity at 0.1 µM was found to be 99.7% with HUVECs (setting [16]) and 89.8% with HUVECs (setting [17]). For the same compound, the activity at 1 µM in test [1] (setting [10]) amounted to 113%; in test [1] (setting [11]), 122%; in test [1] (setting [12]), 139%; in test [1] (setting [13]), 145%; in the test on HUVECs (setting [14]) it was 102%; with HUVECs (setting [15]), 99.7%. Also, the activity at 1 µM with HUVECs (setting [16]) was 108%; in the test on HUVECs (setting [17]) it was 99.4%. In addition, the activity at 10 µM is 95.5% in test [1] (setting [10]); 82.3% in test [1] (setting [11]); 105% in test [1] (setting [12]); 106% in test [1] (setting [13]); 89.2% in the test on HUVECs (setting [14]); 97.9% in the test with HUVECs (setting [15]). Besides, the activity at 10 µM in the test on HUVECs (setting [16]) amounted to 78.8%; with HUVECs (setting [17]) it was 67.3%. For the same compound, the activity at 100 µM came to 88.4% in test [1] (setting [10]); 63.4% in test [1] (setting [11]); 101% in test [1] (setting [12]); 100% in test [1] (setting [13]); 71% in the test with HUVECs (setting [14]); 60.6% with HUVECs (setting [15]). The figures for the activity at 100 µM with HUVECs (setting [16]) and in the test with HUVECs (setting [17]) were 70.4% and 60.2%, respectively. Moreover, the minimal effective concentration in test [1] (iPSC-EC tube formation, top concentration 100.00 µM, read-out: endo.mtl.18hr POD) was found to be 100 µM; in test [1] (iPSC-EC tube formation, top concentration 100.00 µM, read-out: endo.tlps.18hr POD) it was 28.4 µM; in test [1] (iPSC-EC tube formation, top concentration 100.00 µM, read-out: endo.tta.18hr POD), 0.00169 µM; in test [1] (iPSC-EC tube formation, top concentration 100.00 µM, read-out: endo.ttl.18hr POD), 0.00197 µM; with HUVECs (HUVECs, top concentration 100.00 µM, read-out: huvec.mtl.18hr POD) it was 9.33 µM; in the test on HUVECs (HUVECs, top concentration 100.00 µM, read-out: huvec.tlps.18hr POD), 25.8 µM. For the same compound, the minimal effective concentration worked out at 100 µM in the test with HUVECs (HUVECs, top concentration 100.00 µM, read-out: huvec.tta.18hr POD) and 1.22 µM in the test on HUVECs (HUVECs, top concentration 100.00 µM, read-out: huvec.ttl.18hr POD).
